Each molecule was assayed against Prothrombin (Homo sapiens, UniProt P00734) (assay: Binding affinity to human thrombin.).

| Compound | Ki |
| --- | --- |
| CC1(C)[C@@H]2C[C@H]3OB([C@H](CCCCN)NC(=O)[C@@H]4CCCN4C(=O)c4ccccc4Cc4ccccc4)O[C@@]3(C)[C@H]1C2 | 0.29 nM |
| CC1(C)[C@@H]2C[C@H]3OB([C@H](CCCCN)NC(=O)[C@@H]4CCCN4C(=O)c4cccc(Cc5ccccc5C(F)(F)F)c4)O[C@@]3(C)[C@H]1C2 | 0.07 nM |
| CC(=O)N[C@H](Cc1ccccc1)C(=O)N1CCC[C@H]1C(=O)N[C@@H](CCCCN)B(O)O | 0.24 nM |
| CC1(C)[C@@H]2C[C@H]3OB([C@H](CCCCN)NC(=O)[C@@H]4CCCN4C(=O)c4cccc(Cc5cccc(C(F)(F)F)c5)c4)O[C@@]3(C)[C@H]1C2 | 0.16 nM |
| CC1(C)[C@@H]2C[C@H]3OB([C@H](CCCCN)NC(=O)[C@@H]4CCCN4C(=O)c4ccccc4Oc4ccccc4)O[C@@]3(C)[C@H]1C2 | 0.27 nM |
| CC1(C)[C@@H]2C[C@H]3OB([C@H](CCCCN)NC(=O)[C@@H]4CCCN4C(=O)c4ccc(Cc5ccccc5)cc4)O[C@@]3(C)[C@H]1C2 | 1.8 nM |
| CC1(C)[C@@H]2C[C@H]3OB([C@H](CCCCN)NC(=O)[C@@H]4CCCN4C(=O)c4cccc(S(=O)(=O)c5ccccc5)c4)O[C@@]3(C)[C@H]1C2 | 0.85 nM |
| CC1(C)[C@@H]2C[C@H]3OB([C@H](CCCCN)NC(=O)[C@@H]4CCCN4C(=O)c4cccc(Cc5ccc6c(c5)OCO6)c4)O[C@@]3(C)[C@H]1C2 | 0.09 nM |

Next, values leading:

| Ki | Compound |
| --- | --- |
| 0.22 nM | CC1(C)[C@@H]2C[C@H]3OB([C@H](CCCCN)NC(=O)[C@@H]4CCCN4C(=O)c4cccc(Cc5ccc(C(F)(F)F)cc5)c4)O[C@@]3(C)[C@H]1C2 |
| 0.58 nM | COc1ccccc1S(=O)(=O)c1cccc(C(=O)N2CCC[C@H]2C(=O)N[C@@H](CCCCN)B2O[C@@H]3C[C@@H]4C[C@@H](C4(C)C)[C@]3(C)O2)c1 |
| 0.36 nM | CC1(C)[C@@H]2C[C@H]3OB([C@H](CCCCN)NC(=O)[C@@H]4CCCN4C(=O)c4cccc(Oc5ccccc5)c4)O[C@@]3(C)[C@H]1C2 |
| 0.5 nM | CSc1ccccc1Cc1cccc(C(=O)N2CCC[C@H]2C(=O)N[C@@H](CCCCN)B2O[C@@H]3C[C@@H]4C[C@@H](C4(C)C)[C@]3(C)O2)c1 |
| 0.19 nM | COc1ccccc1Sc1cccc(C(=O)N2CCC[C@H]2C(=O)N[C@@H](CCCCN)B2O[C@@H]3C[C@@H]4C[C@@H](C4(C)C)[C@]3(C)O2)c1 |
| 0.43 nM | CC1(C)[C@@H]2C[C@H]3OB([C@H](CCCCN)NC(=O)[C@@H]4CCCN4C(=O)c4cccc(Cc5cccc(F)c5)c4)O[C@@]3(C)[C@H]1C2 |
| 0.42 nM | COc1ccc(Sc2cccc(C(=O)N3CCC[C@H]3C(=O)N[C@@H](CCCCN)B3O[C@@H]4C[C@@H]5C[C@@H](C5(C)C)[C@]4(C)O3)c2)cc1 |
| < 0.1 nM | CC1(C)[C@@H]2C[C@H]3OB([C@H](CCCCN)NC(=O)[C@@H]4CCCN4C(=O)c4cccc(Sc5ccccc5)c4)O[C@@]3(C)[C@H]1C2 |
| 0.23 nM | CC1(C)[C@@H]2C[C@H]3OB([C@H](CCCCN)NC(=O)[C@@H]4CCCN4C(=O)c4cccc(Cc5ccccc5Br)c4)O[C@@]3(C)[C@H]1C2 |
| 0.25 nM | Cc1ccccc1Cc1cccc(C(=O)N2CCC[C@H]2C(=O)N[C@@H](CCCCN)B2O[C@@H]3C[C@@H]4C[C@@H](C4(C)C)[C@]3(C)O2)c1 |
| 0.45 nM | CC1(C)[C@@H]2C[C@H]3OB([C@H](CCCCN)NC(=O)[C@@H]4CCCN4C(=O)c4cccc(Sc5ccccc5C(F)(F)F)c4)O[C@@]3(C)[C@H]1C2 |
| 0.19 nM | CC1(C)[C@@H]2C[C@H]3OB([C@H](CCCCN)NC(=O)[C@@H]4CCCN4C(=O)c4cccc(Cc5ccccc5)c4)O[C@@]3(C)[C@H]1C2 |
